Assay results published in publication PMC12484522, “Neuroprotective effects of chemical constituents from Nicotiana tabacum L. in Parkinson’s disease” (Natural Products and Bioprospecting, 2025).
“Also recorded” adds a separate entry of the source. Read-outs that look alike come from different tables or passages of the source.

Tests used:
[1] = biological target: T1, MAO-B (Homo sapiens, UniProt P27338); assay: MAO-B inhibition assay (kynuramine, fluorescence); assay type: biochemical
T1 sequence (P27338 1-520): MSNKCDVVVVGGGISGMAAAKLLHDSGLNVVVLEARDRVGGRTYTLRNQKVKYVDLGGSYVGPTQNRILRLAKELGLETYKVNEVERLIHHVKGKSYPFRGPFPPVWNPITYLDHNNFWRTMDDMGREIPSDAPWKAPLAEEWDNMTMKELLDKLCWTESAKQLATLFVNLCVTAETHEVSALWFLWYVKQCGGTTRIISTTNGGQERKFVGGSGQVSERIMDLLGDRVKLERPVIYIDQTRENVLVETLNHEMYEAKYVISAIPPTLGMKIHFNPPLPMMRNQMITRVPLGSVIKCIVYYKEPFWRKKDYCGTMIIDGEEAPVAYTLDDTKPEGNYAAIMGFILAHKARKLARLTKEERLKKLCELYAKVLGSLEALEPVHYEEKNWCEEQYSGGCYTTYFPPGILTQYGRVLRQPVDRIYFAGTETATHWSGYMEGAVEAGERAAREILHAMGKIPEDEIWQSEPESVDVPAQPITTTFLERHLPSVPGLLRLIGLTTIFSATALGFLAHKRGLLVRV
Method: In preparing the microplates, 50 μL of MAO-B (2.5 U/mL) was combined with 100 μL of the test compounds at different concentrations. This mixture was incubated at 37 °C for 10 min. […] Next, 50 μL of kynuramine (0.2 mM) sourced from Macklin in Shanghai, China, was added to the mixture. The resulting mixture was incubated at 37 °C for an additional 30 min. The reaction was halted by adding 80 μL of 2 N NaOH. Ultimately, the enzyme activity was measured using a microplate reader, with the excitation and emission wavelengths set at 310 nm and 400 nm, respectively.

[2] = biological target: T1, MAO-B; assay: Kinetic studies of MAO-B inhibition (Lineweaver–Burk plots); assay type: biochemical
Method: The kinetic study of MAO-B inhibition was the Lineweaver–Burk plot, which was performed using the Lineweaver–Burk curve method. […] Kinetic characterization of their MAO-B inhibition was recorded 20 min after initiation. Constants Kis and Ki were calculated using the Lineweaver–Burk plots.

[3] = system: MAO-B over MAO-A; settings: cited from earlier work
[4] = biological target: human MAO-B; set-up: method as in PMID 26796202; settings: selective and reversible inhibition; cited from earlier work
[5] = ABTS+ radical scavenging assay; settings: for IC50: read-out: ABTS+ IC50 (μM) ± SD
Method: Various concentrations of the compounds (60 μL each) were then combined with 150 μL of the diluted ABTS^+ solution. The reaction was maintained in the dark at 30 °C for 6 min. Afterwards, the absorbance was determined at 734 nm with a microplate reader. The calculation of ABTS radical scavenging activity followed the same method as for DPPH radical scavenging activity. IC50 values were determined using GraphPad Prism 7.0, and all tests were conducted in triplicate.

[6] = system: dopamine levels and striatal DOPAC; set-up: method as in PMID 26796202; settings: intraperitoneal, 80 mg/kg; cited from earlier work
[7] = biological target: murine MAO-B; set-up: method as in PMID 26796202; settings: cited from earlier work
[8] = system: 6-OHDA-induced PC12 cells; assay: Neuroprotective effect in 6-OHDA-induced PC12 cells (CCK-8 cell viability); assay type: cell-based
Method: Two-dimensional (2D) cell culture models were used for performing cell viability assays. Approximately 10,000 PC12 cells (Fenghui, Changsha, China) were seeded into each well of a 96-well plate. The cells underwent pre-treatment with the test compounds for 2 h at 37 °C. […] The plate was incubated at 37 °C for 1 h after adding 10 μL of CCK-8 solution (ProteinTech, Chicago, USA) to each well. Then, each well's optical density (OD) was measured at 450 nm using a multimode microplate reader (Waltham, MA, USA).

[9] = system: PC12 cell; assay: Cytotoxicity experiment on PC12 cells; assay type: cell-based; settings: 0.5–100 μM
[10] = DPPH radical scavenging assay; settings: for IC50: read-out: DPPH IC50 (μM) ± SD
Method: The antioxidative capacity of the obtained compounds was carried out through DPPH radical scavenging assays and ABTS assay (Macklin, Shanghai, China) with some modifications, and Vitamin C was used as the positive control. In the DPPH assay, 60 μL of the isolates at varying concentrations were mixed with 100 μL of 100 μM DPPH solution in ethanol in a 96-well microplate. The mixture was shaken for 10 s and then allowed to sit in darkness at 30 °C for 5 min. Subsequently, the absorbance was determined using a microplate reader at a wavelength of 517 nm. The radical-scavenging activity of the compounds was assessed using the formula RSA (%) = [(AB-AA)/AB] × 100%, where AA was the absorbance of the sample and AB was the absorbance of the blank sample. The IC50 value was calculated with GraphPad Prism 7.0, and all experiments were conducted in triplicate.

[11] = MAO-B, dose–response, read-out: IC50 (μM) ± SD
[12] = MAO-B, 50 μM, read-out: Inhibition rate ± SD (%) (50 μM)

CCC1=C(/C=C/C(O)CCCCCCCC(=O)OC)CCC1=O (stereo not drawn) [10/11, phytoprostanes B1 type II]
IC50 [1, 11]: 37.7 ± 1.57 µM | Inhibition mechanism against MAO-B [2]: competitive MAO-B inhibitors; also recorded: competitive inhibition mechanism

CC(=O)/C=C/C/C(C)=C/CC/C(C)=C/CC/C(C)=C/CC/C(C)=C/CO [Compound 1, Nicotiazanorpenoid A]
inhibition at 50 µM [1, 12]: 15.4 ± 8.16%

C=C(C)/C=C/[C@@H](CC/C(C)=C/CC/C(C)=C/C=O)C(C)C [Compound 2, 2,6,11,13-tetradecatetraenal-3,7,13-trimethyl-10-(1-methylethyl)]
inhibition at 50 µM [1, 12]: 11 ± 3.99%

COc1cc2ccc(=O)oc2cc1O [Compound 3, scopoletin]
Selectivity for MAO-B over MAO-A [3]: approximately 3.5 fold | Ki [4]: 20.7 µM | IC50 [1]: 40.2 ± 1.21 µM | ABTS+ RSA ± SD (50 μM) [5]: 68.91 ± 1.75% | IC50 [5]: 27.7 ± 1.2 µM | Inhibition mechanism against MAO-B [2]: non-competitive inhibitor | Ki ([2]; MAO-B, read-out: Ki value (equilibrium constant for inhibitor-enzyme binding)): 78.8 µM | Dopamine levels [6]: significantly elevated | Striatal metabolite 3,4-dihydroxyphenylacetic acid (DOPAC) [6]: reducing | Ki [7]: 22 µM

CC1=CC(=O)CC(C)(C)[C@H]1CC[C@@H](C)O [Compound 4, blumenol C]
inhibition at 50 µM [1, 12]: 16.5 ± 7.04%

CC1=CC(=O)CC(C)(C)[C@H]1/C=C/[C@@H](C)O [Compound 5, (6R,9S)-3-oxo-α-ionol]
inhibition at 50 µM [1, 12]: 24 ± 8.05%

OCCc1ccccc1 [Compound 7, 2-phenylethanol]
inhibition at 50 µM [1, 12]: 14.4 ± 4.04%

CC(C)c1cc2c(cc1O)[C@@]1(C)CCCC(C)(C)[C@@H]1CC2 [Compound 8, ferruginol]
inhibition at 50 µM ([1]; read-out: Inhibition rate ± SD (%) (50 μM), MAO-B, 50 μM): 17.5 ± 1.5%

CC(C)c1cc2c(cc1O)[C@@]1(C)CCCC(C)(C)[C@@H]1C=C2 [Compound 9, 6,7-dehydroferruginol]
inhibition at 50 µM [1, 12]: 7.04 ± 4.08%

CC/C=C\C/C=C\C/C=C\CCCCCC(=O)OC [Compound 14, Methyl (7Z,10Z,13Z)-7,10,13-hexadecatrienoate]
inhibition at 50 µM [1, 12]: > 30% | IC50 [1, 11]: 201 ± 7.03 µM | Neuroprotective effect at various concentrations ([8]; 0.5–100 μM): enhanced cell viability across all tested concentrations, except 50 μM | viability at 5 µM ([8]; Rattus norvegicus, PC-12, 5 μM (best concentration)): 93.9% | viability at 100 µM ([8]; Rattus norvegicus, PC-12, 100 μM, model group 63.58%): 87.1% | Cytotoxicity [9]: extremely low cytotoxicity

CCCCC/C=C\C/C=C\CCCCCCCC(=O)O [Compound 15, linolic acid]
inhibition at 50 µM [1, 12]: 18 ± 4.32%

COCc1ccc(C=O)[nH]1 [Compound 16, 5-(methoxymethyl)-1H-pyrrole-2-carboxaldehyde]
inhibition at 50 µM [1, 12]: 22.2 ± 5.24%

COC(=O)c1ccc(O)cn1 [Compound 17, methyl 5-hydroxypicolinate]
inhibition at 50 µM [1, 12]: 17.1 ± 5.06%

O=C(O)c1ccc(O)cc1 [Compound 18, paraben-acid]
inhibition at 50 µM [1, 12]: 8.29 ± 3.9%

COc1cc(C(CO)OC)ccc1O (stereo not drawn) [Compound 19, 4-hydroxy-β,3-dimethoxybenzeneethanol]
inhibition at 50 µM [1, 12]: 3.71 ± 4.89% | ABTS+ RSA ± SD (50 μM) [5]: 59.17 ± 3.59% | IC50 [5]: 84.06 ± 0.76 µM

COc1cc(CCO)ccc1O [Compound 20, homovanillic alcohol]
inhibition at 50 µM [1, 12]: 2.98 ± 2.8% | ABTS+ RSA ± SD (50 μM) [5]: 57.38 ± 1.01% | IC50 [5]: 60.5 ± 1.18 µM

COc1cc(C(=O)CCO)ccc1O [Compound 21, β-hydroxypropiovanillone]
inhibition at 50 µM ([1]; read-out: Inhibition rate ± SD (%) (50 μM)): 11.2 ± 1.81% | ABTS+ RSA ± SD (50 μM) [5]: 36.36 ± 1.01% | IC50 [5]: 348 ± 17.5 µM

O=C1C=CCCN1 [Compound 22, 5,6-dihydropyridin-2(1H)-one]
inhibition at 50 µM [1, 12]: 1.05 ± 3.46%

C#CCN[C@@H]1CCc2ccccc21 [Rasagiline, rasagiline, reference compound]
Cell viability ([8]; positive control, abstract: at equivalent concentrations): 88.36%

O=C1O[C@H]([C@@H](O)CO)C(O)=C1O [Vitamin C, ascorbic acid, reference compound]
DPPH RSA ± SD (50 μM) [10]: 99.97 ± 0.05% | IC50 [10]: 9.12 ± 0.25 µM | ABTS+ RSA ± SD (50 μM) [5]: 99.80 ± 0.09% | IC50 [5]: 14.46 ± 0.03 µM

isoferulic acid [Compound 6]
DPPH RSA ± SD (50 μM) [10]: 36.00 ± 1.01% | IC50 [10]: 152 ± 1.75 µM | ABTS+ RSA ± SD (50 μM) [5]: 92.90 ± 0.45% | IC50 [5]: 18.1 ± 2.49 µM
